# Experimental data from patent US20240002846A1, “COMPOSITIONS AND METHODS FOR THE DIAGNOSIS AND TREATMENT OF ITCH” (Duke University, priority 2020, published 2024).
# “Also recorded” adds a separate entry of the source.
# What was measured:
# [1] = test system: TRPV1+ central nerve terminals; assay: Ablation of TRPV1+ central nerve terminals in spinal cord (TRPV1 immunolabeling); format: in vivo, mouse; details: i.t. 200 ng/5 μL
# Method: To examine whether TRPV1-expressing sensory neurons contribute to LPC- or miR-146α-induced itch, we ablated the central terminals of TRPV1-expressing neurons by i.t. injection of 200 ng resiniferatoxin (RTX) into the L4/L5 subarachnoid space (Mishra et al. Mol. Cell. Neurosci. 2010, 43, 157-163). Lumbar puncture was made with a 30G-needle and drugs at 5 μL of volume were delivered. Scratching behavior assay was started approximately 2 weeks after resiniferatoxin treatment.
# Immunohistochemistry and morphometry analysis. Routine procedures were followed (Chen et al. Pain 2014, 155, 2662-2672). Briefly, mice were perfused transcardially with 0.01 M PBS followed by ice-cold 4% paraformaldehyde (PFA, Sigma, St. Louis, MO). Cervical spinal cord, TGs and cervical DRGs, and dorsal neck skin were dissected and post-fixed in 4% PFA overnight, cryoprotected in 20% sucrose (48 h) and sectioned on a cryostat (30 μm for spinal cord, 12 μm for TG and DRG and neck skin). […] 4-6 sections were analyzed per mouse. […] The cutoff density threshold was determined by averaging the density of three neurons per section that were judged to be minimally positive, using ImageJ software. […] Positive cells were expressed as % of total counted TG neurons. The labeling density of TRPV1 in spinal cord was measured using the integrated density algorithm of Image J.
# mice = assay: Effect of inhibitor pretreatment on LPA-, LPC- or miR-146a-induced scratching behavior; format: in vivo, mouse; details: i.t. 200 ng/5 μL, about 2 weeks before
# Method: Behavioral assessment. Mice were shaved at the dorsal neck 1 d before experiments. […] After injections, mice were immediately placed back to the chamber, and the scratching behavior was recorded by a Panasonic video camera for 30 min. Hind limb scratching behavior directed toward the injected area at the nape of neck was observed. One scratch is defined as a lifting of the hind limb toward the injection site and then a replacing of the limb back to the floor, regardless of how many scratching strokes take place between those two movements. Behavioral analysis was conducted by observers blinded to genotype.
# Control animals received the same volume of vehicles.
# Lumbar puncture was made with a 30G-needle and drugs at 5 μL of volume were delivered. Scratching behavior assay was started approximately 2 weeks after resiniferatoxin treatment.
# [2] = test system: human TRPV4 mutations (R746C, R746G, R746D, K754G, R757G, R774G, and W776G); assay: Ca2+ imaging in HEK cells transfected with human TRPV4 mutations; format: cell-based; details: except a reduction with mutation W776G
# Method: Cell culture and transfection. HEK293 cells (ATCC® CRL-1573) were cultured on poly-D-lysine coated coverslips in 24-well plate containing DMEM media with high-Glucose (Gibco, Gaithersburg, MD) supplemented with 10% fetal bovine serum (FBS, HyClone Laboratories, Logan, UT) and 100 U/mL of penicillin/streptomycin (Gibco, Gaithersburg, MD). Cell cultures were maintained with 5% of CO2 in a humidified incubator at 37° C. HEK cells were transfected with rat or human wild type or mutant TRPV4 channels with EGFP or YFP coupled to their C-termini (1.5 μg of plasmid for excised patch clamp and Ca^2+ imaging and 200 ng for single-channel experiments). The jetPEI™ Polyplus transfection reagent (Polyplus Transfection, New York, NY) for electrophysiology or Lipofectamine™ 2000 Reagent (Invitrogen, Waltham, MA) for Ca^2+ imaging were used for transfections per manufacturer's instructions as previously described (Chen et al. Pain 2014, 155, 2662-2672; Morales-Lazaro et al. Nat. Commun. 2016, 7, 13092). […]
# (§1) In vitro and ex vivo Ca^2+ imaging. […] Ratios of emissions were acquired at 0.5 Hz. ΔR/R0 was determined as the fraction of the increase of a given ratio over baseline ratio divided by baseline ratio. […]
# [3] = cited from earlier work
# [4] = test system: rat TRPV4 mutations (R746C, R746G, R746D, K754G, R757G, R774G, and W776G); assay: Ca2+ imaging in HEK cells transfected with rat TRPV4 mutations; format: cell-based; details: except a reduction with mutation W776G
# Method: (§2) Cell culture and transfection. HEK293 cells (ATCC® CRL-1573) were cultured on poly-D-lysine coated coverslips in 24-well plate containing DMEM media with high-Glucose (Gibco, Gaithersburg, MD) supplemented with 10% fetal bovine serum (FBS, HyClone Laboratories, Logan, UT) and 100 U/mL of penicillin/streptomycin (Gibco, Gaithersburg, MD). Cell cultures were maintained with 5% of CO2 in a humidified incubator at 37° C. HEK cells were transfected with rat or human wild type or mutant TRPV4 channels with EGFP or YFP coupled to their C-termini (1.5 μg of plasmid for excised patch clamp and Ca^2+ imaging and 200 ng for single-channel experiments). The jetPEI™ Polyplus transfection reagent (Polyplus Transfection, New York, NY) for electrophysiology or Lipofectamine™ 2000 Reagent (Invitrogen, Waltham, MA) for Ca^2+ imaging were used for transfections per manufacturer's instructions as previously described (Chen et al. Pain 2014, 155, 2662-2672; Morales-Lazaro et al. Nat. Commun. 2016, 7, 13092). To investigate whether miR-146a can directly activate TRPV1 channels or indirectly via TLRs, HEK293 cells were transfected with rTRPV1 or co-transfected rTRPV1 with rTLR7, rTLR2, or rTLR6 (Addgene, Watertown, MA) for Ca^2+ imaging assay. Control cells were transfected with GFP or YFP.
# Site-directed mutagenesis of TRPV4 channels. TRPV4 sequences of multiple species were aligned using Clustal Omega program. Site-directed mutagenesis to generate point mutations in rat and human TRPV4 channels were carried out using Phusion DNA polymerase enzyme (Salazar et al. Nat. Struct. Mol. Biol. 2009, 16, 704-710; Rosenbaum et al. Neuron 2002, 33, 703-713; Hsieh et al. Methods Mol. Biol. 2013, 978, 173-186), with final sequencing to check for presence of the induced mutation. We introduced the following mutations into the rTRPV4 or hTRPV4 channel: R746C, R746G, R746D, K754G, R757G, R774G, and W776G.
# as §1
# hTRPV4 = molecular target: T1, hTRPV4 (Homo sapiens, UniProt Q9HBA0); assay: Single-channel recordings of hTRPV4 in HEK293 cells; format: biochemical; details: +60 mV; 100 nM GSK101 or 5 μM LPC 18:1
# T1 construct: expressed in transfected cells; host or cells: HEK293 (ATCC CRL-1573)
# Method: as §2
# For single-channel recordings, Borosilicate glass […]) pipettes were used. Recordings were obtained at +60 mV by acquiring several traces of 1-3 s duration. The effect of GSK1016790A or LPC 18:1 on single TRPV4 channels was studied in inside-out. Currents were filtered at 2 kHz and sampled at 5 kHz. […] Single-channel openings and closures were identified with the half-threshold crossing technique (Morales-Lazaro et al. Nat. Commun. 2016, 7, 13092). The channel open probability was calculated as the sum of the total open time divided by the sweep duration. Dwell times and amplitude histograms in the closed or open states were collected in logarithmic time histograms according to the Sine-Sigworth transformation (Sigworth et al. Biophys. J. 1987, 52, 1047-1054). Sums of three or two exponential components were fitted to histograms using a least-squares algorithm.
# T1 sequence (Q9HBA0 whole entry): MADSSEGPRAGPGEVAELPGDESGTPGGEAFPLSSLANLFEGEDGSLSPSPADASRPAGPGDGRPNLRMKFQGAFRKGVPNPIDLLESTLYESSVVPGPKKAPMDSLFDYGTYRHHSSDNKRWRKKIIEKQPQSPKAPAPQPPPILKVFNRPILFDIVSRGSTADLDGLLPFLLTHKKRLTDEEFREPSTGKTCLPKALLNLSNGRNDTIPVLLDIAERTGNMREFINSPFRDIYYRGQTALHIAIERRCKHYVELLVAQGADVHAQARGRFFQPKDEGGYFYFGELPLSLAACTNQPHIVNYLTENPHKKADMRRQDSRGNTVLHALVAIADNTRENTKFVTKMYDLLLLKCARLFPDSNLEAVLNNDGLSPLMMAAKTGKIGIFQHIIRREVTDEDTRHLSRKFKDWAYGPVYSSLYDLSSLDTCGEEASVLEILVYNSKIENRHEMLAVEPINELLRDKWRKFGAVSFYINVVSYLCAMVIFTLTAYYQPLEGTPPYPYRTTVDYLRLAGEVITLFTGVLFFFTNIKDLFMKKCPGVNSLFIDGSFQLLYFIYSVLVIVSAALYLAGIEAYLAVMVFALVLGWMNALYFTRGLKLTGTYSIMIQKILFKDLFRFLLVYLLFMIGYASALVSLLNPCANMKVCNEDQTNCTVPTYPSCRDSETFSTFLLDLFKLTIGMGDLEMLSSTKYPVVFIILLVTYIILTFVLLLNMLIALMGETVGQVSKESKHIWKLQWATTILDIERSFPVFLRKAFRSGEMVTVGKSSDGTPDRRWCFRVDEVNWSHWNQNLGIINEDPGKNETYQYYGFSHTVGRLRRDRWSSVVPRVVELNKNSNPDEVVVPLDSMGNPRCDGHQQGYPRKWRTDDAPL
structure (smiles),measurement,setting,value
C=C(C)[C@]12C[C@@H](C)[C@@]34O[C@](Cc5ccccc5)(O[C@@H]1[C@@H]3C=C(COC(=O)Cc1ccc(O)c(OC)c1)C[C@]1(O)C(=O)C(C)=C[C@@H]41)O2 [resiniferatoxin],TRPV1+ central nerve terminals in superficial layers of the spinal cord,[1],Selective ablation; also recorded: Elimination
same,effect on LPC-induced itch after ablation of TRPV1-expressing terminals,mice,significantly reduced
same,effect on miR-146a-induced itch after ablation of TRPV1-expressing terminals,mice,significant reduction; also recorded: significantly reduced
CC(C)C[C@H](NC(=O)c1cc2ccccc2s1)C(=O)N1CCN(C(=O)[C@H](CO)NS(=O)(=O)c2ccc(Cl)cc2Cl)CC1 [GSK101],10 nM GSK101-induced Ca2+ signal in TRPV4 mutants vs hTRPV4,[2],not significantly disrupted
same,lethality in-vivo,[3],lethal
same,10 nM GSK101-induced Ca2+ signal in TRPV4 mutants vs rTRPV4,[4],remained largely active; also recorded: not significantly disrupted
same,open level (single-channel) amplitude,hTRPV4,6.45±0.55 pA
same,open probability (Po),hTRPV4,0.85±0.08
same,single channel conductance (gi),hTRPV4,107 pS
